Biological target: HLA-B*14:02 (Homo sapiens, UniProt P01889, A93T/A95T/C349S/D138N/D201E/E187T/E204Q/H137Y/K202T/Q94N/R155S/R180L/S121W/S35A/Y140F/Y195H/Y91C)
Assay: REVEAL MHC-peptide binding assay (ProImmune)
Details: REVEAL MHC-peptide binding assay, versus positive control
Description: To test whether outlier peptides identified by unsupervised motif clustering are false positives or true ligands with very weak binding affinity, we performed an HLA binding assay on 59 newly identified antigens for HLA-B*14:02 ( Supplementary Table 3 , 13 outliers and 46 non-outlier peptides). […] For LPFCRPGPEGQL, this peptide was likely called an outlier because the middle arginine residue was not predicted to take part in the 9-mer binding motif by NetMHCpan (the predicted core motif was LPFGPEGQL).
Figure 3 HLA binding assay for HLA-B*14:02. Peptide synthesis and binding assay were performed by ProImmune, Ltd. (see Methods). (A) Distributions of binding scores, measured as the percentages of the binding activity compared to a positive control, for clustered peptides (n = 46) and outlier peptides (n = 13). (B) Comparison of predicted percentage ranks of eluted ligand (% rank) and binding scores. The orange and red dashed lines indicate the 2% rank and 0.5% rank thresholds for weak and strong binders, respectively.
The binding activities of selected 59 newly identified candidate antigens for HLA-B*14:02 ( Supplementary Table 3 ) were assessed using the REVEAL MHC-peptide binding assay provided by ProImmune, Ltd. (Oxford, UK). Peptides were synthesized and quality checked using MALDI-TOF mass spectrometry by ProImmune, Ltd. (Oxford, UK). Binding activities were reported as percentage relative to the affinity of a positive control (a known high-affinity T cell epitope for HLA-B*14:02). According to the experiment report provided by the company, the standard error of the reported affinities is 3 percentage points.

“LRNGGHFVI [candidate antigen for HLA-B*14:02, outlier]” was tested, and the “HLA binding activity (in words)” value was “high binding affinity”.
In the case of “LPFCRPGPEGQL [candidate antigen for HLA-B*14:02, outlier]”, the “HLA binding activity (in words)” value is reported as “high binding affinity”.

Same assay, conditions: relative to a known high-affinity T cell epitope for HLA-B*14:02; synthesized peptides; standard error 3 percentage points

First: QEVKQGKLL [candidate antigen for HLA-B*14:02, non-outlier]
Second: SRLDSVLLL [candidate antigen for HLA-B*14:02, non-outlier]
The “Binding Test (binding activity as percentage of positive control)” value of the first is lower: 0.1% for the first, 43.9% for the second.

Going from “FGYSRHTPF [candidate antigen for HLA-B*14:02, non-outlier]” to “LSSLSLPILI [candidate antigen for HLA-B*14:02, outlier]”, the “Binding Test (binding activity as percentage of positive control)” value falls from 24.8% to 0.1%.

Compared with “CHIYHHAL [candidate antigen for HLA-B*14:02, non-outlier]”, “PLGMNQLQAL [candidate antigen for HLA-B*14:02, non-outlier]” is lower in “Binding Test (binding activity as percentage of positive control)” value: 55.5% for the first, 0.3% for the second.

First: LLSPQQTI [candidate antigen for HLA-B*14:02, non-outlier]
Second: SSSKGSLGGGF [candidate antigen for HLA-B*14:02, non-outlier]
The “Binding Test (binding activity as percentage of positive control)” value of the first is higher: 0.8% for the first, 0.2% for the second.

Compared with “DLPEHAVL [candidate antigen for HLA-B*14:02, non-outlier]”, “DNAVHCVI [candidate antigen for HLA-B*14:02, non-outlier]” is higher in “Binding Test (binding activity as percentage of positive control)” value: 14.2% for the first, 26.2% for the second.

First: DRYLPGETF [candidate antigen for HLA-B*14:02, non-outlier]
Second: ESGPSIVHRKCF [candidate antigen for HLA-B*14:02, outlier]
The “Binding Test (binding activity as percentage of positive control)” value of the first is higher: 61.4% for the first, 0.1% for the second.

First: TYDDATKTF [candidate antigen for HLA-B*14:02, outlier]
Second: LNQRAQAVL [candidate antigen for HLA-B*14:02, outlier]
The “Binding Test (binding activity as percentage of positive control)” value of the first is lower: 0.1% for the first, 3.1% for the second.

Compared with “DQFLKICL [candidate antigen for HLA-B*14:02, non-outlier]”, “LPIIHCTL [candidate antigen for HLA-B*14:02, non-outlier]” is lower in “Binding Test (binding activity as percentage of positive control)” value: 62.6% for the first, 56.4% for the second.

Compared with “QQGTHLSL [candidate antigen for HLA-B*14:02, non-outlier]”, “HQITHQAM [candidate antigen for HLA-B*14:02, non-outlier]” is higher in “Binding Test (binding activity as percentage of positive control)” value: 47.7% for the first, 52.4% for the second.

First: CDFVHQAL [candidate antigen for HLA-B*14:02, non-outlier]
Second: YATLHHVI [candidate antigen for HLA-B*14:02, non-outlier]
The “Binding Test (binding activity as percentage of positive control)” value of the first is lower: 41.7% for the first, 42.2% for the second.

Going from “AAPARVSVA [candidate antigen for HLA-B*14:02, outlier]” to “LRNGGHFVI [candidate antigen for HLA-B*14:02, outlier]”, the “Binding Test (binding activity as percentage of positive control)” value rises from 0.2% to 61.2%.

Going from “SQYQRLLCI [candidate antigen for HLA-B*14:02, non-outlier]” to “LNVLHLDT [candidate antigen for HLA-B*14:02, non-outlier]”, the “Binding Test (binding activity as percentage of positive control)” value falls from 80.3% to 5%.

First: YQILHECL [candidate antigen for HLA-B*14:02, non-outlier]
Second: GLGILDPVLL [candidate antigen for HLA-B*14:02, non-outlier]
The “Binding Test (binding activity as percentage of positive control)” value of the first is higher: 50.1% for the first, 0.1% for the second.

First: QAYMNQRKL [candidate antigen for HLA-B*14:02, non-outlier]
Second: CVTIHEAL [candidate antigen for HLA-B*14:02, non-outlier]
The “Binding Test (binding activity as percentage of positive control)” value of the first is lower: 0.2% for the first, 32.1% for the second.

Compared with “CEVTHQGL [candidate antigen for HLA-B*14:02, non-outlier]”, “AQGGVLPNI [candidate antigen for HLA-B*14:02, outlier]” is lower in “Binding Test (binding activity as percentage of positive control)” value: 25.4% for the first, 0.2% for the second.

Going from “SPTCHACL [candidate antigen for HLA-B*14:02, non-outlier]” to “LPFCRPGPEGQL [candidate antigen for HLA-B*14:02, outlier]”, the “Binding Test (binding activity as percentage of positive control)” value rises from 19.8% to 75.9%.

Going from “QQLCHQTL [candidate antigen for HLA-B*14:02, non-outlier]” to “IHTLVESL [candidate antigen for HLA-B*14:02, non-outlier]”, the “Binding Test (binding activity as percentage of positive control)” value falls from 56.8% to 0.2%.

Compared with “REQFSSRGS [candidate antigen for HLA-B*14:02, outlier]”, “IRLENEIQ [candidate antigen for HLA-B*14:02, non-outlier]” is higher in “Binding Test (binding activity as percentage of positive control)” value: 0% for the first, 0.1% for the second.

First: QTWWHGVL [candidate antigen for HLA-B*14:02, non-outlier]
Second: HPASHPEL [candidate antigen for HLA-B*14:02, non-outlier]
The “Binding Test (binding activity as percentage of positive control)” value of the first is higher: 74.6% for the first, 29.9% for the second.

Going from “QVWGTLTSL [candidate antigen for HLA-B*14:02, non-outlier]” to “TYDDATKTFTVTE [candidate antigen for HLA-B*14:02, non-outlier]”, the “Binding Test (binding activity as percentage of positive control)” value falls from 0.1% to 0%.

First: SCRVHKII [candidate antigen for HLA-B*14:02, non-outlier]
Second: QPAEHLQL [candidate antigen for HLA-B*14:02, non-outlier]
The “Binding Test (binding activity as percentage of positive control)” value of the first is lower: 8.3% for the first, 49.4% for the second.

Compared with “DQYKRETI [candidate antigen for HLA-B*14:02, non-outlier]”, “LGFTHHCL [candidate antigen for HLA-B*14:02, non-outlier]” is higher in “Binding Test (binding activity as percentage of positive control)” value: 33.9% for the first, 47.6% for the second.

“AVSMIPPLLL [candidate antigen for HLA-B*14:02, outlier]” and “DQVGGLGR [candidate antigen for HLA-B*14:02, non-outlier]” are the same in “Binding Test (binding activity as percentage of positive control)” value: 0.2% for the first, 0.2% for the second.

Compared with “ETASDLLLHSAL [candidate antigen for HLA-B*14:02, non-outlier]”, “VAPGKDLTK [candidate antigen for HLA-B*14:02, non-outlier]” is lower in “Binding Test (binding activity as percentage of positive control)” value: 59.3% for the first, 0% for the second.

Going from “NQFQRQAAV [candidate antigen for HLA-B*14:02, non-outlier]” to “QQFAHPPL [candidate antigen for HLA-B*14:02, non-outlier]”, the “Binding Test (binding activity as percentage of positive control)” value rises from 63.6% to 82.8%.

Going from “CQVTHISL [candidate antigen for HLA-B*14:02, non-outlier]” to “TRIEKRIVI [candidate antigen for HLA-B*14:02, non-outlier]”, the “Binding Test (binding activity as percentage of positive control)” value falls from 56.7% to 54.9%.

Compared with “QGLSILLPKI [candidate antigen for HLA-B*14:02, outlier]”, “QQILRDAL [candidate antigen for HLA-B*14:02, non-outlier]” is higher in “Binding Test (binding activity as percentage of positive control)” value: 0% for the first, 56.2% for the second.

Compared with “CRFEGQFSI [candidate antigen for HLA-B*14:02, non-outlier]”, “LPFCHSEL [candidate antigen for HLA-B*14:02, non-outlier]” is lower in “Binding Test (binding activity as percentage of positive control)” value: 63.5% for the first, 60.2% for the second.

“LSYVSIMAAI [candidate antigen for HLA-B*14:02, non-outlier]” and “LTGDIHAITAA [candidate antigen for HLA-B*14:02, outlier]” are the same in “Binding Test (binding activity as percentage of positive control)” value: 0.2% for the first, 0.2% for the second.

Reference: PMC8977642, “Unsupervised Mining of HLA-I Peptidomes Reveals New Binding Motifs and Potential False Positives in the Community Database” (Frontiers in Immunology, 2022)
